According to patent US7115586B2, “Non-inclusion cyclodextrin complexes” (Decode Genetics EHF., priority 2001, dated 2006):
In brackets after ≈: the same amount, converted by molar mass. Several values for one entry are separate records, joined by “and”; a condition that tells them apart may be missing. Equal entries are not always repeated. Structures can show the parent of a compound that is named as a salt. Where two headings read alike, the source gives them in different places.

Columns and labels:
[1] = Viscosity (Brookfield digital viscometer); format: physicochemical; details: 20% (w/v) HPβCD solution
[2] = Phase-solubility in aqueous HPβCD solutions
[3] = Experiment A: solubility of alprazolam and diflunisal sodium salt in 10% HPβCD; details: for solubility at 7 days: 22.5 °C, pH 8.36, aqueous with cosolvent or surfactant or cyclodextrin, thermodynamic from solid
physchem [4] = details: 22.5 °C, pH 6, aqueous buffer, thermodynamic from solid
[5] = Phase-solubility of cholesterol in aqueous cyclodextrin solutions; format: physicochemical; details: aqueous solutions of various β-cyclodextrin derivatives (RMβCD, HPβCD, SBEβCD, TMAβCD, CMβCD), ambient temperature (FIG. 7)
From the text: This left a very thin layer of cholesterol on the inner surface of the vials.

[6] = octanol/water partition coefficient, unionized form; cited from earlier work
[7] = Job's plots (continuous variation, NMR and UV); format: physicochemical; details: sodium salts, buffered solutions (FIG. 3)
Protocol: The total molar concentration (i.e., the combined concentration of drug and HPβCD in moles per liter) was kept constant, but the mole fraction of HPβCD (i.e., [HPβCD]/([drug]+[HPβCD])) were varied from 0.1 to 0.9. The buffer salts were dissolved in 30% (v/v) D2O in water and appropriate amounts of drug and HPβCD were dissolved in the buffer solution. […] […]. The NMR spectra were recorded at 297 K on a Bruker AZ250P 250 MHZ spectrometer (USA). The UV-detector used was a Perkin-Elmer Lambda 3A Spectrophotometer (USA).

physchem [8] = details: 22.5 °C, pH 8.36, aqueous with cosolvent or surfactant or cyclodextrin, thermodynamic from solid
[9] = pure water at approximately 25° C.; cited from earlier work

Question: Which viscosity [1] does the source give for 2-Hydroxypropyl-β-cyclodextrin here?
Answer: 2.10 cPoise

Question: Which results are given for `Cc1nnc2n1-c1ccc(Cl)cc1C(c1ccccc1)=NC2` [Alprazolam]?
Answer: solubility at 7 days ([2]; 22.5 °C, pH 6, aqueous buffer, thermodynamic from solid): 200 µM (≈ 61.8 µg/mL); type of phase-solubility diagram ([2]; HPβCD containing pH 6.0 aqueous phosphate buffer solution, no second drug (FIG. 4)): AL-type; type of phase-solubility diagram ([2]; aqueous HPβCD solutions saturated with the sodium salt of diflunisal (FIGS. 5, 6)): AL-type; type of phase-solubility diagram ([2]; in the presence of ibuprofen (FIG. 4A)): AL-type; increase in solubility ([3]; 10% HPβCD saturated with diflunisal vs 10% HPβCD alone): 108%; solubility at 7 days ([3]; 10% (w/v) HPβCD solution previously saturated with diflunisal): 1230 µg/mL and 3980 µM; solubility at 7 days ([3]; 10% aqueous HPβCD solution, unbuffered, room temperature): 590 µg/mL and 1910 µM

Question: For `CC/C(=C(/CC)c1ccc(O)cc1)c1ccc(O)cc1` [Diethylstilbestrol], which “Complexation efficiency (slope/(1 − slope))” value (pH 6) is on record?
Answer: 2

Question: What about the “Slope of the phase-solubility diagram” value (pH 6) of the same molecule?
Answer: 0.71

Question: And the “shape of phase-solubility diagram” value (pH 6)?
Answer: non-linear

Question: What about the “type of phase-solubility diagram” value (pH 6) of the same molecule?
Answer: AL-type

Question: And the solubility at 7 days (physchem [4])?
Answer: 10 µM (≈ 2.68 µg/mL)

Question: What does the source list for `CC(C)CCC[C@@H](C)[C@H]1CC[C@H]2[C@@H]3CC=C4C[C@@H](O)CC[C@]4(C)[C@H]3CC[C@]12C` [cholesterol]?
Answer: type of phase-solubility diagram [5]: AP-type; log P [6]: 8.5

Question: With `CC(C)CCC[C@@H](C)[C@H]1CC[C@H]2C3=CC=C4C[C@@H](O)CC[C@]4(C)[C@H]3CC[C@]12C` [dehydrocholesterol] as the molecule, how does the “log P” value [6] read?
Answer: 7.8

Question: Which results are given for `O=C(O)c1cc(-c2ccc(F)cc2F)ccc1O` [diflunisal]?
Answer: mole fraction of HPβCD in the complex (Job's plots) [7]: 0.5; slope of phase-solubility diagram (pH 6): 1.1; type of phase-solubility diagram (pH 6): AL-type; log P [6]: 4.4; solubility at 7 days (physchem [8]): ~47 mg/mL (≈ 188 mM)

Question: Which “log P” value [6] does the source give for `O=C(O)Cc1ccccc1Oc1ccc(Cl)cc1Cl` [fenclofenac] here?
Answer: 4.8

Question: Which “slope of phase-solubility diagram” value (pH 6.12) does the source give for `CC(C)Cc1ccc(C(C)C(=O)[O-])cc1.[Na+]` (stereo not shown) [ibuprofen sodium salt] here?
Answer: 1.12

Question: And the “slope of phase-solubility diagram” value (pH 6.28)?
Answer: 1.17

Question: What about the “slope of phase-solubility diagram” value (pH 6.72) of the same molecule?
Answer: 1.12

Question: What does the source list for `CC(C)Cc1ccc(C(C)C(=O)O)cc1` (stereo not shown) [ibuprofen]?
Answer: mole fraction of HPβCD in the complex (Job's plots) [7]: 0.5; effect of increase in ionic strength on solubility (pH 6): does not effect; slope of phase-solubility diagram (pH 6): 1.2; type of phase-solubility diagram (pH 6): AL-type

Question: What does the source list for `O=C(O)c1cc(-c2ccc(F)cc2F)ccc1O` [sodium salt of diflunisal, diflunisal sodium salt]?
Answer: slope of phase-solubility diagram (pH 8.36): 1.1; type of phase-solubility diagram (pH 8.36): AL-type

Question: For `Oc1cc(Cl)ccc1Oc1ccc(Cl)cc1Cl` [triclosan], which “log P” value [6] is on record?
Answer: 4.8

Question: Which “log P” value [6] does the source give for carotene here?
Answer: > 10

Question: Which Solubility in water [9] does the source give for “β-cyclodextrin sulfobutyl ether sodium salt” here?
Answer: >500 mg/mL
